Measurements published in PMC2376196, “Novel thalidomide analogues display anti-angiogenic activity independently of immunomodulatory effects” (British Journal of Cancer, 2002).
In brackets after ≈: the same amount, converted by molar mass. Entries after “also recorded” stand apart in the source; their conditions may differ. Like-named read-outs stand apart in the source and are kept apart here.

Columns and labels:
[1] = system: PDE type 4 purified from U937 cells; test: Phosphodiesterase (PDE) type 4 assay; format: biochemical; settings: PDE type 4 from U937 cells; three independent experiments; read-out: PDE4 activity IC50
Experimental: PDE type 4 purification from U937 cells was carried out using the method of [Hill and Mitchell (1994)]. PDE activity was assayed, using a method described by [di Santo and Heaslip (1993)], in the presence of varying concentrations of thalidomide analogues. Each data point was carried out in duplicate with activity expressed as percentage of control. IC50 was determined from dose response curves derived from three independent experiments.

TNF-α = TNF-α inhibitory activity; format: cell-based
HUVEC = HUVEC proliferation (bFGF- and VEGF-induced, 3H-thymidine); format: cell-based, human; settings: for bFGF and VEGF-induced proliferation of HUVECs: 5-50 μg ml^-1, 96 h; for HUVEC inhibition ~IC50 VEGF / HUVEC inhibition ~IC50 bFGF / IC50: 96 h, approximate figures; for IC50: Homo sapiens, HUVEC
Experimental: (§1) Human umbilical vein endothelial cells (HUVEC) were purchased from TCS Cellworks Ltd. (Park Leys, Botolph Claydon, Bucks, UK) and cultured in large vessel EC basal medium and cell growth supplement (TCS Cellworks Ltd.). The cells were passaged between 3–5 times prior to use. The human endothelial-like EA.hy926 cell line, derived from the fusion of HUVEC with the A549 carcinoma cell line ([Edgell et al, 1983]), was kindly provided by Cora-Jean Edgell (NC, USA). The cells were cultured in DMEM with high glucose, 10% FCS and HAT. Both cell lines were harvested from subconfluent cultures and diluted to 4×10^4 cells ml^−1. Cells were seeded in 60 wells of a 96-well plate in a volume of 100 μl^−1. One plate was used per test article. Plates were incubated for 1 h at 37°C and 5% CO2. Growth factors were added at a volume of 50 μl^−1 with final concentrations of 10 ng ml^−1. Thalidomide and its analogues were added at a volume of 50 μl^−1 in final concentrations of 5, 10, 25, 50 μg ml^−1. DMSO as used as a vehicle at a final concentration of 0.05%. Plates were incubated at 37°C with 5% CO2 for 96 h. During the last 18 h of culture 1 μCi^−1 of ^3H-thymidine was added per well. Plates were then stored at −20°C until analysis using a Microbeta counter (Wallac, UK).

EA.hy926 cell line = test: EA.hy926 proliferation (bFGF- and VEGF-induced, 3H-thymidine); format: cell-based, human; settings: 5-50 μg ml^-1, 96 h; data not shown
Experimental: as §1

rat aortic explants = test: Rat aorta assay (microvessel outgrowths); format: cell-based; parameters: key to Anti-angiogenesis Rat aorta: 0=no effect; 1=non significant inhibition; 2=significant inhibition at 10 μg ml^-1; 3=significant inhibition at 1 μg ml^-1; settings: for Anti-angiogenesis Rat aorta: ranked 0-3
Experimental: For the human angiogenesis assay thalidomide and various analogues were dissolved in DMSO (Sigma, Kent, UK) to obtain a stock solution of 1 mg ml^−1. Further dilutions were made in warm culture medium immediately before use and 1 and 10 μg ml^−1 of thalidomide or analogues were administered every 48 h. Final DMSO concentration was 0.05%. For the rat aorta assay, thalidomide analogues (Celgene, Warren, NJ, USA) were prepared in Tween 80 (Sigma, Kent, UK). […] The final Tween 80 concentration was 0.025%. For in vivo treatment experiments, mice were treated daily with 10 or 50 mg kg^−1 IMiD-1 with 0.5% DMSO as vehicle (see Tumour challenge model).
Preparation of agarose culture wells and aortic explants were prepared as described originally [Nicosia and Ottinetti, 1990], and subsequently modified by [Stevenson et al, 1998]. In brief, aortic explants were stored in DMEM/HAM F12. Agarose rings were obtained by punching two concentric circles in the sterile agarose gel (1.5%, w v^−1) with specifically designed aluminium punches. Collagen type I from rat tail (Sigma) was dissolved overnight in glacial acetic acid and diluted to 4.3 mg ml^−1 with 10% (v v^−1) DMEM/HAM F12. The final collagen solution was obtained by mixing seven volumes of 4.3 mg ml^−1 collagen with two volumes NaHCO3 (11.7 mg ml^−1 in DMEM/HAM F12) and one volume of 10×MEM. Finally, the pH was adjusted to 7.4 with 0.1 M NaOH using phenol red as a visual indicator. Prior to embedding of explants in collagen gel, the bottom of each agarose well was coated with 200 μl collagen solution and allowed to set at 37°C. The wells were then filled (further addition of 400 μl) and explants were promptly orientated into the centre of the collagen gel. The plates were incubated overnight with serum-free medium before group allocation and drug treatment commenced. Drugs were prepared as described and diluted in DMEM/HAM F12 medium to be administered at each media change (48 h). Microvessel outgrowths in all cultures were quantified at each media change.

[2] = system: HUVECs (tubule formation); test: Human angiogenesis kit (tubule development); format: cell-based; parameters: key to Anti-angiogenesis Human model: 0=no effect; 1=non significant inhibition; 2=significant inhibition at 10 μg ml^-1; 3=significant inhibition at 1 μg ml^-1; settings: for inhibition of tubule development: 11 days; for Anti-angiogenesis Human model: ranked 0-3
Experimental: (§2) For the human angiogenesis assay thalidomide and various analogues were dissolved in DMSO (Sigma, Kent, UK) to obtain a stock solution of 1 mg ml^−1. Further dilutions were made in warm culture medium immediately before use and 1 and 10 μg ml^−1 of thalidomide or analogues were administered every 48 h. Final DMSO concentration was 0.05%. For the rat aorta assay, thalidomide analogues (Celgene, Warren, NJ, USA) were prepared in Tween 80 (Sigma, Kent, UK). Dilutions were made in culture medium immediately before use and 1 or 10 μg ml^−1 of the analogues were administered every 48 h. The final Tween 80 concentration was 0.025%. For in vivo treatment experiments, mice were treated daily with 10 or 50 mg kg^−1 IMiD-1 with 0.5% DMSO as vehicle (see Tumour challenge model).
A commercially available human angiogenesis kit, used for the assessment of angiogenesis in vitro ([Bishop et al, 2000]; [Donovan et al, 2001]; [Terai et al, 2001]; [Drinkwater et al, 2002]; [Osugi et al, 2002]) was provided by TCS Cellworks. The assay is supplied as growing cultures of HUVECs at the earliest stages of tubule formation in a 24 well plate format. The assay was carried out according to manufactures instructions with minor modifications. In brief, 0.5 ml^−1 of fresh medium or medium plus drug preparations were added to the appropriate wells. A known angiogenic stimulator (VEGF at 5 ng ml^−1) and inhibitor (suramin at 10 μg ml^−1) were included as positive and negative controls respectively in addition to medium and DMSO controls and plates were incubated at 37°C. Drug administration was carried out every 48 h. On day 11, wells were fixed using ice cold 70% EtOH prior to incubation (RT) for 30 min. Blocking buffer was then added for 10 min. Endothelial cells were visualised by first staining with a primary sheep anti-human for von Willebrand factor antibody followed by a secondary donkey anti-sheep IgG horseradish peroxidase conjugate prior to colour development using a DAB metal substrate. The plate was washed with ddH2O (×3) and allowed to air dry overnight. Cultures were scored manually using a 25-point Chalkley eyepiece graticule (Graticules Ltd., Tonbridge, Kent, UK), previously described as a satisfactory method of assessing tumour vascularity ([Fox et al, 1995]). The extent of angiogenesis was assessed by counting the number of points on the chalkley graticule that landed on a tubule. The count was repeated 12 times for each well. The term ‘graticule unit’ was assigned to this measurement of tubule density.

EA.hy926 cells = test: Wound assay for EA.hy926 cell migration; format: cell-based, human; settings: 16 h
Experimental: We tested IMiD-1 in the wound healing assay as described by [Igura et al, 2001]. Briefly, confluent monolayers of EA.hy.926 cells in 35-mm dishes were wounded with a rubber policeman and washed with PBS. Then the dishes were incubated in complete DMEM containing IMiD-1 or suramin for 16 h at 37°C in a 5% CO2 incubator. DMSO (0.05%) was used as control. The cell monolayers were fixed with absolute methanol and stained with Giemsa. The number of cells that had migrated from the edge of the wound in each 125×500 μm area of eight randomly chosen fields was counted. The results are presented as the average number of cells per field.

CMT93 colorectal tumour = format: in vivo, MF1 nude mice
Experimental: as §2
MF1 nude mice (nu nu^−1) were purchased from Harlan UK. Mice were age and sex-matched for individual experiments. All animal experiments have been carried out with ethical committee approval. The ethical guidelines that were followed meet the standards set by the UKCCCR guidelines ([Workman et al, 1998]). CMT93 is an epithelial-like murine rectum polypoid carcinoma cell line with sarcomatous features derived from a C57/BL mouse ([Franks and Hemmings, 1978]). Mice were challenged subcutaneously with 200 μl of the murine colorectal cell line CMT93 (2×10^6 per mouse). Once the tumours reached a size of 20 mm^3, the potent anti-angiogenic analogue IMiD-1 was administered intraperitoneally daily at a concentration of 10 or 50 mg kg^−1. Tumours were measured every 3–4 days, and volumes (in mm^3) were calculated by the use of the formula (width [mm^2]×length [mm]×0.52). The animals were observed daily, and those bearing large tumours were monitored carefully for any signs of discomfort. […] Histological samples were obtained using formalin-fixed, paraffin-embedded sections stained for haematoxylin and eosin and viewed under a microscope at a magnification of ×400.

CMT93 cells = CMT93 cells in vitro (direct effect, VEGF secretion); format: cell-based, murine; settings: data not shown
human EC = system: human EC; parameters: method as in Moreira et al, 1999; settings: compared with thalidomide; ref Moreira et al, 1999; cited from earlier work
EC = system: EC; parameters: method as in Takano et al, 1994; settings: ref Takano et al, 1994; cited from earlier work

Nc1cccc2c1CN(C1CCC(=O)NC1=O)C2=O (centres unmarked) [IMiD-1]
IC50 [1]: > 100 µM | IC50 (TNF-α): 0.1 µM | bFGF and VEGF-induced proliferation of HUVECs (HUVEC): did not significantly inhibit; also recorded: did not affect | HUVEC inhibition ~IC50 VEGF (HUVEC; VEGF-induced proliferation): >50 µg/mL | HUVEC inhibition ~IC50 bFGF (HUVEC; bFGF-induced proliferation): >50 µg/mL | bFGF and VEGF-induced proliferation of EA.hy926 (EA.hy926 cell line): did not affect | inhibition of microvessel outgrowths (rat aortic explants; 1 μg ml^-1 every 48 h): significantly inhibited | inhibition of microvessel outgrowths (rat aortic explants; 10 μg ml^-1 every 48 h, up to day 10): 100% | Anti-angiogenesis Rat aorta (rat aortic explants): 3 | inhibition of tubule development ([2]; 1 μg ml^-1 every 48 h): significant reduction; also recorded: significantly inhibit | inhibition of tubule development ([2]; 10 μg ml^-1 every 48 h): more potent than suramin | Anti-angiogenesis Human model [2]: 3 | migration of EC in the wound healing assay (EA.hy926 cells): significantly inhibit | histological examination of tumours (CMT93 colorectal tumour; 10 or 50 mg kg^-1 i.p. daily): vast regions of necrotic tissue | tumour growth rates (CMT93 colorectal tumour; 10 or 50 mg kg^-1 i.p. daily, nude mice, CMT93): significantly reduce | health and weight of mice (CMT93 colorectal tumour; mouse, in vivo, ip): healthy and maintained weight as normal | direct drug effect on CMT93 cells in vitro (CMT93 cells): no direct drug effect | secretion of VEGF by CMT93 cells in vitro (CMT93 cells): inhibit

COc1ccc(C(CC(N)=O)N2C(=O)c3ccccc3C2=O)cc1OC (centres unmarked) [SelCID-3]
IC50 [1]: 9.42 µM | IC50 (TNF-α): 12.6 µM | bFGF and VEGF-induced proliferation of HUVECs (HUVEC): inhibited | HUVEC inhibition ~IC50 VEGF (HUVEC; VEGF-induced proliferation): ~45 µg/mL | HUVEC inhibition ~IC50 bFGF (HUVEC; bFGF-induced proliferation): ~25 µg/mL | bFGF and VEGF-induced proliferation of EA.hy926 (EA.hy926 cell line): inhibited | inhibition of microvessel outgrowths (rat aortic explants; 1 μg ml^-1 every 48 h): potent inhibition | inhibition of microvessel outgrowths (rat aortic explants; 10 μg ml^-1 every 48 h): potent inhibition | Anti-angiogenesis Rat aorta (rat aortic explants): 3 | inhibition of human EC proliferation in vitro (human EC): greater extent than thalidomide

O=C1CCC(N2C(=O)c3ccccc3C2=O)C(=O)N1 (centres unmarked) [Thalidomide]
IC50 [1]: > 100 µM | IC50 (TNF-α): 190 µM | bFGF and VEGF-induced proliferation of HUVECs (HUVEC): did not significantly inhibit | IC50 (HUVEC; VEGF-induced proliferation, read-out: HUVEC inhibition ~IC50 VEGF): > 50 µg/mL | IC50 (HUVEC; bFGF-induced proliferation, read-out: HUVEC inhibition ~IC50 bFGF): > 50 µg/mL | inhibition of microvessel development (rat aortic explants; at up to 50 μg ml^-1, data not shown): did not significantly inhibit | Anti-angiogenesis Rat aorta (rat aortic explants): 0 | inhibition of tubule development ([2]; 10 μg ml^-1 every 48 h): non-significant inhibition | Anti-angiogenesis Human model [2]: 1

Cc1ccc(C(=O)Nc2ccc(S(=O)(=O)O)c3cc(S(=O)(=O)O)cc(S(=O)(=O)O)c23)cc1NC(=O)c1cccc(NC(=O)Nc2cccc(C(=O)Nc3cc(C(=O)Nc4ccc(S(=O)(=O)O)c5cc(S(=O)(=O)O)cc(S(=O)(=O)O)c45)ccc3C)c2)c1 [suramin, reference compound]
bFGF and VEGF-induced proliferation of HUVECs (HUVEC): did not inhibit | inhibition of microvessel outgrowths (rat aortic explants; 10 μg ml^-1 every 48 h): significantly inhibit | IC50 (rat aortic explants; Rattus norvegicus, previously determined, data not shown): 10 µg/mL (≈ 7.71 µM) | inhibition at 10 µg/mL ([2]; Homo sapiens, HUVEC, suramin at 10 μg ml^-1): ~50% | migration of EC in the wound healing assay (EA.hy926 cells): significantly inhibit | concentration required to inhibit EC proliferation (EC): 250 µg/mL

VEGF
effect on angiogenesis (tubule development) ([2]; VEGF at 5 ng ml^-1, positive control): significantly increased
